Reference: ChEMBL document CHEMBL5233285, “Recent Update on the Development of PCSK9 Inhibitors for Hypercholesterolemia Treatment” (J Med Chem, 2022)
Numbered stars: 1 amine (or outer) side, 2 acyl side, 3 side chain; on linkers, the order of the positions; unused ones are H or OH. Square brackets hold non-standard residues; d marks the D form. Peptide text beside a SMILES is read from it. X1 = O=C(C1(N[*:1])CCC(c2ccccc2)CC1)[*:2]; hArg = N=C(N)NCCCC[C@H](N)C(=O)O

Tests used:
[1] = molecular target: T1, Proprotein convertase subtilisin/kexin type 9 (Homo sapiens, UniProt Q8NBP7); test: Binding affinity to PCSK9 (unknown origin)
[2] = molecular target: T1, Proprotein convertase subtilisin/kexin type 9; test: Inhibition of human PCSK9 preincubated for 30 mins followed by EGF(A) addition and measured after 2 hrs by TR-FRET assay
[3] = molecular target: T2, PCSK9/LDLR (Homo sapiens, UniProt Q8NBP7); test: Inhibition of PCSK9-LDLR (unknown origin) protein-protein interaction; format: protein assay
[4] = molecular target: T3, 3-hydroxy-3-methylglutaryl-coenzyme A reductase (Homo sapiens, UniProt P04035); test: Inhibition of HMG CoA reductase (unknown origin)
T3 sequence (P04035 whole entry): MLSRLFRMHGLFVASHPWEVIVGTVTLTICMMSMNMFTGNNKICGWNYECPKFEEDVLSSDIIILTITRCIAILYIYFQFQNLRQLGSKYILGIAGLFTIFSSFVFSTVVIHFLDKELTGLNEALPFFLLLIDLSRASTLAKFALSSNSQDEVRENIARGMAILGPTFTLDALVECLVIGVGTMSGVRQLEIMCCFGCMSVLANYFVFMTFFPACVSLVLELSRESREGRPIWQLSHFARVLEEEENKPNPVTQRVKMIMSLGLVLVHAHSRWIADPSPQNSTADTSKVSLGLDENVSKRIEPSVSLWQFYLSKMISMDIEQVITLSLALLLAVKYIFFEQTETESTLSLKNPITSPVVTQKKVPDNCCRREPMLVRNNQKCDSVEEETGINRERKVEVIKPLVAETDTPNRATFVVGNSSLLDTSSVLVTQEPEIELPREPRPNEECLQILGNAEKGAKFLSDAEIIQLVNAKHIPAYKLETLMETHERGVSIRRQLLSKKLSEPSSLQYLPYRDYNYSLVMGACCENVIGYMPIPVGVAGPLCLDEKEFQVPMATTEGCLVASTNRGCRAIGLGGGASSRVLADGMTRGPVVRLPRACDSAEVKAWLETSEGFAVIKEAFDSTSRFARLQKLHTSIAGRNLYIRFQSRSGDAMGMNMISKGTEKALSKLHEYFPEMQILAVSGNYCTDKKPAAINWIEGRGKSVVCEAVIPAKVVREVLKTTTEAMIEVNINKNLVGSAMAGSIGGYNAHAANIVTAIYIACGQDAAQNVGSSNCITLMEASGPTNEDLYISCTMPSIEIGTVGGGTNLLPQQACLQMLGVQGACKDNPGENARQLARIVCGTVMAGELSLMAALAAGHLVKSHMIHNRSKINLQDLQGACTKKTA

[5] = molecular target: T1, Proprotein convertase subtilisin/kexin type 9; test: Inhibition of PCSK9 mediated LDLR degradation in human HepG2 cells assessed as restoration of LDLR; format: cell-based
[6] = molecular target: T1, Proprotein convertase subtilisin/kexin type 9; test: Inhibition of human PCSK9
[7] = molecular target: T1, Proprotein convertase subtilisin/kexin type 9; test: Binding affinity to human PCSK9
[8] = molecular target: T1, Proprotein convertase subtilisin/kexin type 9; test: Inhibition of PCSK9 in human HepG2 cells assessed as increase in LDL uptake at 1 uM relative to control; format: cell-based
[9] = molecular target: T1, Proprotein convertase subtilisin/kexin type 9; test: Inhibition of PCSK9 in human HepG2 cells assessed as restoration of LDLR at 1 uM relative to control; format: cell-based
[10] = molecular target: T1, Proprotein convertase subtilisin/kexin type 9; test: Inhibition of human PCSK9 preincubated for 30 mins followed by LDLR addition and measured after 2 hrs by TR-FRET assay
[11] = molecular target: T1, Proprotein convertase subtilisin/kexin type 9; test: Inhibition of human PCSK9 preincubated for 30 mins followed by ab20 addition and measured after 2 hrs by TR-FRET assay
[12] = system: Homo sapiens; test: Hypocholesterolemic activity in human assessed as reduction in ApoB level at 300 mg, QD administered for 28 days; format: functional; parameters: scale not given: the % may be the effect or the level left; details: time 28 day
[13] = system: Homo sapiens; test: Hypocholesterolemic activity in human assessed as reduction in TC level at 300 mg, QD administered for 28 days; format: functional; parameters: scale not given: the % may be the effect or the level left; details: time 28 day
[14] = system: Homo sapiens; test: Hypocholesterolemic activity in human assessed as reduction in LDL-C level at 300 mg, QD administered for 28 days; format: functional; parameters: scale not given: the % may be the effect or the level left; details: time 28 day
[15] = molecular target: Proprotein convertase subtilisin/kexin type 9 (Mus musculus, UniProt Q80W65); test: Binding affinity to mouse PCSK9
[16] = molecular target: T2, PCSK9/LDLR; test: Inhibition of PCSK9-LDLR protein-protein interaction in human HepG2 cells assessed as increase in LDL uptake; format: cell-based
[17] = species on record: Homo sapiens; test: Hypocholesterolemic activity in human assessed as reduction in LDL-C level at 10 to 20 mg; format: functional; parameters: scale not given: the % may be the effect or the level left; details: dose 10-20 mg

T2 sequence (Q8NBP7 31-152 limits assumed): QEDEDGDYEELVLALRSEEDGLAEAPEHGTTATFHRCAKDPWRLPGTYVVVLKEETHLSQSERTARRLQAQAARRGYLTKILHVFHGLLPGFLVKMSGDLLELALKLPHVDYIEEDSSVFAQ
T2 sequence (Q8NBP7 153-692 limits assumed): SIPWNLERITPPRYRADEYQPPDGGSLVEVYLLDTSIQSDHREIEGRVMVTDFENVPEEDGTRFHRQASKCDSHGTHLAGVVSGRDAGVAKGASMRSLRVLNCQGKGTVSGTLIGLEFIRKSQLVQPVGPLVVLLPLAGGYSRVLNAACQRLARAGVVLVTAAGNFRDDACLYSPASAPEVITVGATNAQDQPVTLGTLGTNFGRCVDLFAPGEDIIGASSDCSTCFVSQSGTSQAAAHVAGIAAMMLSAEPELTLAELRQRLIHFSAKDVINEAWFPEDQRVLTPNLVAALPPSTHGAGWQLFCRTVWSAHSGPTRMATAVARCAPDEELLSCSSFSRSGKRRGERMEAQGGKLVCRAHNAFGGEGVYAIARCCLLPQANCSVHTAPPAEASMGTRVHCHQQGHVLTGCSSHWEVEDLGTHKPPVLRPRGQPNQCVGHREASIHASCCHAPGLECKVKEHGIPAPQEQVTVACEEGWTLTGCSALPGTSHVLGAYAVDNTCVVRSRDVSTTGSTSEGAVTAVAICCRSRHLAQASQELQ
T2 sequence (P01130 22-860 partner limits assumed): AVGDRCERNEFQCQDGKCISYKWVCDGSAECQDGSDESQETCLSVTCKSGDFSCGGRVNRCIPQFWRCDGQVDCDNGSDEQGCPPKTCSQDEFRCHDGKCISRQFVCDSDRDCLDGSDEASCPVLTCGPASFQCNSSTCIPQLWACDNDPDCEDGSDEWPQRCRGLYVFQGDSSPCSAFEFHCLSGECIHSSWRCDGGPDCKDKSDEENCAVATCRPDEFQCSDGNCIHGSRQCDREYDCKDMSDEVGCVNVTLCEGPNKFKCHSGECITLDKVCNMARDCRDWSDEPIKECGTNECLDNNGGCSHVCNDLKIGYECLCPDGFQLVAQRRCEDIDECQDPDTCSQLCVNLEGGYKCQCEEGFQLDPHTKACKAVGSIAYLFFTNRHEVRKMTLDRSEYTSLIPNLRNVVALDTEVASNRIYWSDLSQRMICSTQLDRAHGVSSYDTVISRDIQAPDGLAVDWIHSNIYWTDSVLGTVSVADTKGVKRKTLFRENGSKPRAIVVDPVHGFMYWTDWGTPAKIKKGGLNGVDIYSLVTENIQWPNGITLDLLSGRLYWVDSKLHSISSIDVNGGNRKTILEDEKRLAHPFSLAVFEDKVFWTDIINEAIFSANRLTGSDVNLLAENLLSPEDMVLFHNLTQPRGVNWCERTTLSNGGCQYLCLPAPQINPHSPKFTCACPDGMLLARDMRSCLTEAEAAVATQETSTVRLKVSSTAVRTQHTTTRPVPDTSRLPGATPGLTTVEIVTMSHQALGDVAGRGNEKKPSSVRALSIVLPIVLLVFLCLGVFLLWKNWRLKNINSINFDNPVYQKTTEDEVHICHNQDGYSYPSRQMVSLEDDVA
T1 sequence (Q8NBP7 31-152 limits assumed): as the sequence (Q8NBP7 31-152 limits assumed) above
T1 sequence (Q8NBP7 153-692 limits assumed): as the sequence (Q8NBP7 153-692 limits assumed) above
Chain of Proprotein convertase subtilisin/kexin type 9 (Mus musculus, UniProt Q80W65) (Q80W65 35-155 limits assumed): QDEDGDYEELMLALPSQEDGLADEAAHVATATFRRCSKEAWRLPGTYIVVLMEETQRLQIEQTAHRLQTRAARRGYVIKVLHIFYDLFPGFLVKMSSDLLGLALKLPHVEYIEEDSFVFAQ
Chain of Proprotein convertase subtilisin/kexin type 9 (Mus musculus, UniProt Q80W65) (Q80W65 156-694 limits assumed): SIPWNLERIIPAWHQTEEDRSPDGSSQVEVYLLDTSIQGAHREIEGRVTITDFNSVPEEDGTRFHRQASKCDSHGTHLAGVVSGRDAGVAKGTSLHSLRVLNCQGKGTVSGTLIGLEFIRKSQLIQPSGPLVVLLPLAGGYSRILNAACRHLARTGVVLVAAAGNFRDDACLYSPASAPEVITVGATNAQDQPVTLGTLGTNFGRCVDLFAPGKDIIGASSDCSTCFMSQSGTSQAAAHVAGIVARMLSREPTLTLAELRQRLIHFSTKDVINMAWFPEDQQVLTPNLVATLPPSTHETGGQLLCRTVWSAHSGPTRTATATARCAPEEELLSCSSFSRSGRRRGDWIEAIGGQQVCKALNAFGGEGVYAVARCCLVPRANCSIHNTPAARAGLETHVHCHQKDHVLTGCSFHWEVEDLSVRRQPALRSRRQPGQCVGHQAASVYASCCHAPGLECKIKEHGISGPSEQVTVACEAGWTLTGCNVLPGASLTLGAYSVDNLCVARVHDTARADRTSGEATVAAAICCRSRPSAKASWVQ

Compound `CC(C)C[C@H](C(=O)N1CCN([C@@H](CC(N)=O)C(=O)N[C@@H](CCCNC(=N)N)C(=O)C[C@H]2CCOC2=O)CC1)N1C(=O)N[C@@H](CC(=O)O)C1=O` has a Kd [1] of 24.8 µM.

With `CC[C@H](C)[C@H](NC(=O)[C@H](CCCCNC(=N)N)NC(=O)[C@@H](NC(=O)[C@H](CC(C)C)NC(=O)[C@H](CC(N)=O)NC(=O)[C@H](Cc1c[nH]c2ccccc12)NC(=O)[C@@H]1CCCN1C(=O)[C@H](CCSC)NC(=O)[C@H](CC(C)C)NC(=O)[C@@H](N)CC(=O)O)C(C)C)C(=O)NCC(=O)N[C@@H](CC(C)C)C(=O)N[C@@H](CC(C)C)C(=O)N[C@@H](CCCNC(=N)N)C(=O)O` (H-DLMPWNLV[hArg]IGLLR-OH) the IC50 [2] was > 50 µM.

`CC[C@H](C)[C@H](NC(=O)[C@@H](N)CC(C)C)C(=O)N[C@@H](CC(C)C)C(=O)N1CCC[C@H]1C(=O)N[C@@H](CCCCN)C(=O)N[C@@H](Cc1c[nH]cn1)C(=O)N[C@@H](CO)C(=O)N[C@@H](C)C(=O)N[C@@H](CC(=O)O)C(=O)O` (H-LILPKHSAD-OH) gave an IC50 [3] of 1.6 µM and an IC50 [4] of 147 µM.

`CC[C@H](C)[C@H](NC(=O)[C@H](CCC(N)=O)NC(=O)[C@H](CC(C)C)NC(=O)[C@H](CC(N)=O)NC(=O)[C@H](Cc1c[nH]c2ccccc12)NC(=O)[C@@H]1CCCN1C(=O)[C@H](CC(C)C)NC(=O)[C@H](CCCNC(=N)N)NC(=O)[C@H](CS)NC(=O)CNC(=O)[C@H](CO)NC(=O)CNC(=O)[C@@H](NC(=O)[C@H](Cc1c[nH]c2ccccc12)NC(=O)[C@H](CC(=O)O)NC(=O)[C@H](CC(C)C)NC(=O)[C@H](Cc1ccc(O)cc1)NC(=O)[C@H](CCC(=O)O)NC(=O)[C@H](CCC(=O)O)NC(=O)[C@H](Cc1c[nH]c2ccccc12)NC(=O)[C@H](CO)NC(=O)[C@@H](NC(=O)[C@H](Cc1ccccc1)NC(=O)[C@@H](NC(=O)[C@@H](N)[C@@H](C)O)C(C)C)[C@@H](C)O)C(C)C)C(=O)NCC(=O)N[C@@H](CC(C)C)C(=O)N1CCC[C@H]1C(=O)N[C@@H](CS)C(=O)O` (H-TVFTSWEEYLDWVGSGCRLPWNLQIGLPC-OH) was tested, and the EC50 [5] was 0.25 µM, the IC50 [6] was 0.02 µM and the IC50 [2] was > 50 µM. It also gave a Kd [7] of 0.0055 µM.

Work on `CC(=O)N[C@H](C(=O)N[C@H](C(=O)N[C@@H](Cc1ccccc1)C(=O)N[C@H](C(=O)N[C@@H](CO)C(=O)N[C@@H](Cc1c[nH]c2ccccc12)C(=O)N[C@@H](CCC(=O)O)C(=O)N[C@@H](CCC(=O)O)C(=O)N[C@@H](C)C(=O)N[C@@H](CC(C)C)C(=O)N[C@@H](CC(=O)O)C(=O)N[C@@H](Cc1c[nH]c2ccccc12)C(=O)N[C@H](C(N)=O)C(C)C)[C@@H](C)O)C(C)C)[C@@H](C)O` (Ac-TVFTSWEEALDWV-NH2) yielded an IC50 [3] of 27.1 µM, an inhibition [8] of 99% and an inhibition [9] of 89.9%.

`CC(C)C[C@H](NC(=O)[C@H](Cc1ccc(O)cc1)NC(=O)[C@@H](N)CC(C)C)C(=O)N1CCC[C@H]1C(=O)N[C@@H](CCCCN)C(=O)N[C@@H](Cc1c[nH]cn1)C(=O)N[C@@H](CO)C(=O)N[C@@H](CC(=O)O)C(=O)N[C@@H](CCCNC(=N)N)C(=O)N[C@@H](CC(=O)O)C(=O)O` (H-LYLPKHSDRD-OH) was tested, and the IC50 [3] was 0.7 µM.

Work on `CC[C@H](C)[C@H](NC(=O)[C@H](CCCCNC(=N)N)NC(=O)[C@@H](NC(=O)[C@H](CC(C)C)NC(=O)[C@H](CC(N)=O)NC(=O)[C@H](Cc1c[nH]c2ccccc12)NC(=O)CNC(=O)[C@@H]1CCCN1C(=O)[C@H](Cc1ccccc1)NC(=O)[C@H](CO)NC(=O)[C@H](CCC(=O)O)NC(=O)[C@@H](N)CCSC)C(C)C)C(=O)NCC(=O)N[C@@H](CC(C)C)C(=O)N[C@@H](CC(C)C)C(=O)N[C@@H](CCCNC(=N)N)C(=O)O` (H-MESFPGWNLV[hArg]IGLLR-OH) yielded an inhibition [5] of 70%, an IC50 [10] of 25 µM and a Kd [7] of 0.7 µM. The IC50 [11] was 0.84 µM.

Compound `CC(=O)N[C@H](C(=O)N[C@H](C(=O)N[C@@H](Cc1ccccc1)C(=O)N[C@@H](CCCNC(=N)N)C(=O)N[C@@H](CO)C(=O)N[C@@H](Cc1c[nH]c2ccccc12)C(=O)N[C@@H](CCC(=O)O)C(=O)N[C@@H](CCC(=O)O)C(=O)N[C@@H](Cc1ccc(O)cc1)C(=O)N[C@@H](CC(C)C)C(=O)N[C@@H](CC(=O)O)C(=O)N[C@@H](Cc1ccc(O)cc1)C(=O)N[C@H](C(N)=O)C(C)C)C(C)C)[C@@H](C)O` (Ac-TVFRSWEEYLDYV-NH2) has an IC50 [3] of 14.5 µM, an inhibition [8] of 88% and an inhibition [9] of 75.3%.

Compound `COc1ccc2c(c1)CCN1Cc3c(ccc(OC)c3OS(=O)(=O)c3cccc(F)c3)C[C@H]21.Cl` has an Activity [12] of 17.4%, an Activity [13] of 20.1% and an Activity [14] of 26.3%.

`CC[C@H](C)[C@H](NC(=O)[C@H](CCCCNC(=N)N)NC(=O)[C@@H](NC(=O)[C@H](CC(C)C)NC(=O)[C@H](CC(N)=O)NC(=O)[C@H](Cc1c[nH]c2ccccc12)NC(=O)C1(N)CCC(c2ccccc2)CC1)C(C)C)C(=O)NCC(=O)N[C@@H](CC(C)C)C(=O)N[C@@H](CC(C)C)C(=O)N[C@@H](CCCNC(=N)N)C(=O)O` (stereo partly specified) (H-[X1]WNLV[hArg]IGLLR-OH) gave an IC50 [6] of 0.7 µM and an IC50 [11] of 0.14 µM.

Compound `CC(C)[C@@H]1NC(=O)[C@H](Cc2ccccc2)NC(=O)CSC[C@@H](C(=O)NCC(N)=O)NC(=O)[C@@H]2CCCN2C(=O)[C@H](CCCNC(=N)N)NC(=O)[C@H](CC(=O)O)NC(=O)[C@H](C)N(C)C(=O)[C@H](Cc2ccc(-c3ccccc3)cc2)NC(=O)[C@H](C)N(C)C(=O)[C@H](Cc2ccc(-c3ccccc3)cc2)NC(=O)[C@H]([C@@H](C)O)NC(=O)[C@H]([C@@H](C)O)NC(=O)[C@H](CO)NC1=O` has a Kd [15] of 0.001 µM, an EC50 [16] of 0.106 µM and a Kd [7] of 0.0003 µM.

In the case of `CC[C@H](C)[C@H](NC(=O)[C@H](CCCCNC(=N)N)NC(=O)[C@H](CCCCN)NC(=O)[C@H](CC(C)C)NC(=O)[C@H](CC(N)=O)NC(=O)[C@H](Cc1c[nH]c2ccccc12)NC(=O)C1(N)CCC(c2ccccc2)CC1)C(=O)NCC(=O)N[C@@H](CC(C)C)C(=O)N[C@@H](CC(C)C)C(=O)N[C@@H](CCCNC(=N)N)C(=O)O` (stereo partly specified) (H-[X1]WNLK[hArg]IGLLR-OH), the inhibition [5] is reported as 50%, the IC50 [2] is reported as 0.72 µM and the IC50 [10] is reported as 1.83 µM. The Kd [7] was 0.39 µM and the IC50 [11] was 0.04 µM.

`C[C@H]1NC(=O)[C@H](CNC(=O)CCOCCOCC[N+](C)(C)C)NC(=O)CCSCc2cc3cc(c2)-n2cc(nn2)Cn2cc(c4cc(F)ccc42)C[C@@H]2NC(=O)[C@H](Cc4cccc(c4)C/C=C/CCO[C@H]4CCN(C2=O)[C@@H]4C(=O)N[C@@H]([C@@H](C)O)C(=O)N[C@@H](Cc2ccc(O)cc2)C(=O)N2CCC[C@@]2(C)C(=O)NCCSC3)NC1=O` was tested, and the Activity [17] was 65%.

With `CC[C@H](C)[C@H](NC(=O)[C@H](CCCCNC(=N)N)NC(=O)[C@@H](NC(=O)[C@H](CC(C)C)NC(=O)[C@H](CC(N)=O)NC(=O)[C@@H](N)Cc1c[nH]c2ccccc12)C(C)C)C(=O)NCC(=O)N[C@@H](CC(C)C)C(=O)N[C@@H](CC(C)C)C(=O)N[C@@H](CCCNC(=N)N)C(=O)O` (H-WNLV[hArg]IGLLR-OH) the IC50 [2] was > 50 µM.

For `CC(C)C[C@H](N)C(=O)N1CCC[C@H]1C(=O)N[C@@H](CCCCN)C(=O)N[C@@H](Cc1c[nH]cn1)C(=O)N[C@@H](CO)C(=O)N[C@@H](C)C(=O)N[C@@H](CC(=O)O)C(=O)O` (H-LPKHSAD-OH), the IC50 [3] was 1.7 µM and the IC50 [4] was 175 µM.
